Laboratory results reported in US12528826B2, “[1,4]oxazepino[2,3-c]quinolinone derivatives as BCL6 inhibitors” (Cancer Research Technology Limited, priority 2019, dated 2026).

These compounds were tested against T1, Trx-6×His-BCL6 (human BCL6 BTB domain covering amino-acid sequence 5-129) (Homo sapiens, UniProt P41182) (assay: HTRF assay (BCL6 / BCOR peptide)). Details: 1 nM Trx-6×His-BCL6, 300 nM BCOR-AF633 peptide, 2 hours incubation at room temperature; read-out: HTRF avg pIC50 (converted).
T1 construct: made in house
Type: binding
Method: After 2 hours incubation at room temperature the plate was read on a Pherastar FSX (BMG Labtech) plate reader equipped with 337 nm laser excitation filter, a first emission filter at 620 nm and a second emission filter at 665 nm. The % inhibition at each concentration was calculated by normalising FRET ratio to the appropriate high (DMSO with all reagents) and low (DMSO without BCL6) controls.

Row | SMILES | IC50
1 | CN(C)[C@H]1CCCN(c2ncc(Cl)c(Nc3ccc4c(c3)c3c(c(=O)n4C)OCC(F)(F)[C@H](C4CC4)N3)n2)C1 [Example 9h, (S)-10-((5-chloro-2-((S)-3-(dimethylamino)piperidin-1-yl)pyrimidin-4-yl)amino)-2-cyclopropyl-3,3-difluoro-7-methyl-1,2,3,4-tetrahydro-[1,4]oxazepino[2,3-c]quinolin-6(7H)-one] | 3.39 nM
2 | CCCN(C)c1ncc(Cl)c(Nc2ccc3c(c2)c2c(c(=O)n3C)OCC(F)(F)[C@H](C3CC3)N2)n1 [Example 11i, (S)-10-((5-chloro-2-(methyl(propyl)amino)pyrimidin-4-yl)amino)-2-cyclopropyl-3,3-difluoro-7-methyl-1,2,3,4-tetrahydro-[1,4]oxazepino[2,3-c]quinolin-6(7H)-one] | 30.9 nM
3 | Cn1c(=O)c2c(c3cc(Nc4nc(N5CC6CC5CC6(F)F)ncc4Cl)ccc31)N[C@@H](C1CC1)C(F)(F)CO2 (mixture of isomers) [Example 9l, (S)-10-((5-chloro-2-((1R,4R)-5,5-difluoro-2-azabicyclo[2.2.1]heptan-2-yl)pyrimidin-4-yl)amino)-2-cyclopropyl-3,3-difluoro-7-methyl-1,2,3,4-tetrahydro-[1,4]oxazepino[2,3-c]quinolin-6(7H)-one; (S)-10-((5-chloro-2-((1S,4S)-5,5-difluoro-2-azabicyclo[2.2.1]heptan-2-yl)pyrimidin-4-yl)amino)-2-cyclopropyl-3,3-difluoro-7-methyl-1,2,3,4-tetrahydro-[1,4]oxazepino[2,3-c]quinolin-6(7H)-one] | 11.7 nM
4 | CC1CCCN(c2ncc(Cl)c(Nc3ccc4c(c3)c3c(c(=O)n4C)OCC(F)(F)[C@H](C4CC4)N3)n2)C1C (stereo partly drawn) [Example 12x08, (2S)-10-((5-chloro-2-(2,3-dimethylpiperidin-1-yl)pyrimidin-4-yl)amino)-2-cyclopropyl-3,3-difluoro-7-methyl-1,2,3,4-tetrahydro-[1,4]oxazepino[2,3-c]quinolin-6(7H)-one] | 58.9 nM

Continued, values first:

Row | IC50 | SMILES
5 | 5.62 nM | Cn1c(=O)c2c(c3cc(Nc4nc(N5CC(O)CC6(CC6)C5)ncc4Cl)ccc31)N[C@@H](C1CC1)C(F)(F)CO2 (mixture of isomers) [Example 11h, (S)-10-((5-chloro-2-((R)-7-hydroxy-5-azaspiro[2.5]octan-5-yl)pyrimidin-4-yl)amino)-2-cyclopropyl-3,3-difluoro-7-methyl-1,2,3,4-tetrahydro-[1,4]oxazepino[2,3-c]quinolin-6(7H)-one:(S)-10-((5-chloro-2-((S)-7-hydroxy-5-azaspiro[2.5]octan-5-yl)pyrimidin-4-yl)amino)-2-cyclopropyl-3,3-difluoro-7-methyl-1,2,3,4-tetrahydro-[1,4]oxazepino[2,3-c]quinolin-6(7H)-one (1:1)]
6 | 9.33 nM | Cn1c(=O)c2c(c3cc(Nc4nc(N5CC(C)(F)C5)ncc4Cl)ccc31)N[C@@H](C1CC1)C(F)(F)CO2 [Example 1m, (S)-10-((5-chloro-2-(3-fluoro-3-methylazetidin-1-yl)pyrimidin-4-yl)amino)-2-cyclopropyl-3,3-difluoro-7-methyl-1,2,3,4-tetrahydro-[1,4]oxazepino[2,3-c]quinolin-6(7H)-one]
7 | 15.5 nM | C[C@H]1C[C@@H](F)CN(c2ncc(Cl)c(Nc3ccc4c(c3)c3c(c(=O)n4C)OCC(F)(F)[C@H](C4CC4)N3)n2)C1 [Example 12x03, (S)-10-((5-chloro-2-((3R,5S)-3-fluoro-5-methylpiperidin-1-yl)pyrimidin-4-yl)amino)-2-cyclopropyl-3,3-difluoro-7-methyl-1,2,3,4-tetrahydro-[1,4]oxazepino[2,3-c]quinolin-6(7H)-one]
8 | 0.871 nM | Cn1c(=O)c2c(c3cc(Nc4nc(N5C[C@H](O)C[C@H](O)C5)ncc4Cl)ccc31)N[C@@H](C1CC1)C(F)(F)CO2 [Example 11e, (S)-10-((5-chloro-2-((3R,5S)-3,5-dihydroxypiperidin-1-yl)pyrimidin-4-yl)amino)-2-cyclopropyl-3,3-difluoro-7-methyl-1,2,3,4-tetrahydro-[1,4]oxazepino[2,3-c]quinolin-6(7H)-one]
